Experimental data: patent publication EP0538689A1, “Substituted 2,3-dihydropyrans, method for their preparation and their use as medicaments” (BAYER AG, priority 1991, dated 1993)
Where a name gives a salt, the structure may show the parent alone.

System: C. albicans
Assay: Mouse candidosis model, antimycotic in vivo efficacy
Parameters: species or system Männliche CF₁-SPF-Mäuse
Settings: mice infected i.v. with 1-3 x 10⁶ Sprosszellen von C. albicans, surviving/total animals
Experimental: Die erfindungsgemäßen Verbindungen wurden in den Applikationsarten i.v., s.c. und orale Gabe am Modell der Mäuse-Candidose auf ihre antimykotische in vivo-Wirksamkeit geprüft: Männliche CF₁-SPF-Mäuse wurden mit 1-3 x 10⁶ Sprosszellen von C. albicans pro Tier durch Injektion der Keimsuspension in phys. NaCl-Lösung (0,2 ml/Tier) in die Schwanzvene infiziert. Nicht behandelte Kontrolltiere entwickeln unter diesen Infektionsbedingungen eine Nierencandidose und sterben zu 95-100% der eingesetzten Tiere innerhalb 6 Tagen p.i. an dieser Infektion. Wurden infizierte Tiere täglich 2 mal, beginnend mit dem Tag der Infektion, mit den erfindungsgemäßen Verbindungen oral oder parenteral in Dosen 2 x 25 bis 2 x 50 mg/kg Körpergewicht über 2 - 5 Tage behandelt, so überleben 60-90% der Tiere die Infektion in gutem Zustand. Die C.albicans-Keimzahlen in den Nieren der infizierten und behandelten Tiere liegen am 4. Tag p.i. durchschnittlich um 2 Zehnerpotenzen unter denen von unbehandelten, infizierten Kontrolltieren. Tabelle A

| Structure (SMILES) | Zahl der überl. Tiere (Dosis 2 × 25 mg/kg/d, App. sc) | Zahl der überl. Tiere (Dosis 2 × 50 mg/kg/d, App. po) |
| --- | --- | --- |
| N[C@H]1C=CCO[C@H]1C(=O)O [Beispiel 17, (2R,3S)-3-Amino-2,3-dihydro-6H-pyran-2-carbonsäure-hydrochlorid] | 3/10 | – |
| COC(=O)[C@H]1OCC=C[C@H]1NC(=O)OC(C)(C)C [Beispiel VII] | – | 8/10 |
| COC(=O)[C@H]1OCC=C[C@H]1N [Beispiel 1, (2S,3R)-3-Amino-2,3-dihydro-6H-pyran-2-carbonsäuremethylester Hydrochlorid] | – | 7/10 |
